Data as given in PubChem BioAssay (NCI).
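96-well plates; 48 h exposure; 5 concentrations. Endpoints by linear interpolation between flanking doses. Not reached: highest tested concentration assigned. GI50 marks 50% less growth. TGI: concentration producing complete growth inhibition.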

What was measured:
Experiment in all cases: growth of human tumour cells (NCI), 48 h
OVCAR-4 ovarian = system: OVCAR-4 ovarian
MDA-MB-468 breast = system: MDA-MB-468 breast
ACHN renal = system: ACHN renal
K-562 leukemia = system: K-562 leukemia
KM12 colon = system: KM12 colon
COLO 205 colon = system: COLO 205 colon
T-47D breast = system: T-47D breast
A549 NSCLC = system: A549 NSCLC
CCRF-CEM leukemia = system: CCRF-CEM leukemia
HOP-62 NSCLC = system: HOP-62 NSCLC
SK-MEL-28 melanoma = system: SK-MEL-28 melanoma
CAKI-1 renal = system: CAKI-1 renal
NCI/ADR-RES ovarian = system: NCI/ADR-RES ovarian
MDA-MB-231 breast = system: MDA-MB-231 breast
HCC-2998 colon = system: HCC-2998 colon
SF-539 CNS = system: SF-539 CNS
IGROV1 ovarian = system: IGROV1 ovarian
MDA-MB-435 = system: MDA-MB-435
HCT-116 colon = system: HCT-116 colon
SW-620 colon = system: SW-620 colon
SK-MEL-5 melanoma = system: SK-MEL-5 melanoma
PC-3 prostate = system: PC-3 prostate
UACC-62 melanoma = system: UACC-62 melanoma
786-0 renal = system: 786-0 renal
MOLT-4 leukemia = system: MOLT-4 leukemia
SK-MEL-2 melanoma = system: SK-MEL-2 melanoma
TK-10 renal = system: TK-10 renal
SR leukemia = system: SR leukemia
A498 renal = system: A498 renal

With `O=C(N/N=C/c1ccc(Cl)o1)c1[nH]c2ccc(Br)cc2c1-c1ccccc1` the GI50 (OVCAR-4 ovarian) was 3.81 µM, the TGI (OVCAR-4 ovarian) was 40.2 µM and the GI50 (MDA-MB-468 breast) was 0.276 µM. It also gave a TGI (MDA-MB-468 breast) of 6.37 µM, a GI50 (ACHN renal) of 0.523 µM and a TGI (ACHN renal) of 21 µM. For the same molecule, the GI50 (K-562 leukemia) was 0.251 µM, the TGI (K-562 leukemia) was > 100 µM and the GI50 (KM12 colon) was 0.393 µM. For the same molecule, the TGI (KM12 colon) was > 100 µM, the GI50 (COLO 205 colon) was 0.245 µM and the TGI (COLO 205 colon) was 0.549 µM. For the same molecule, the GI50 (T-47D breast) was 4.53 µM, the TGI (T-47D breast) was > 100 µM and the GI50 (A549 NSCLC) was 0.383 µM. It also gave a TGI (A549 NSCLC) of 32.4 µM, a GI50 (CCRF-CEM leukemia) of 0.351 µM and a TGI (CCRF-CEM leukemia) of 20.2 µM. The GI50 (HOP-62 NSCLC) was 0.472 µM, the TGI (HOP-62 NSCLC) was 27.4 µM and the GI50 (SK-MEL-28 melanoma) was 0.993 µM. The TGI (SK-MEL-28 melanoma) was > 61.2 µM, the GI50 (CAKI-1 renal) was 0.389 µM and the TGI (CAKI-1 renal) was 17.9 µM. For the same molecule, the GI50 (NCI/ADR-RES ovarian) was 0.168 µM, the TGI (NCI/ADR-RES ovarian) was 0.514 µM and the GI50 (MDA-MB-231 breast) was 0.316 µM. The TGI (MDA-MB-231 breast) was 12.1 µM, the GI50 (HCC-2998 colon) was 0.38 µM and the TGI (HCC-2998 colon) was 35.1 µM. The GI50 (SF-539 CNS) was 0.212 µM, the TGI (SF-539 CNS) was 0.625 µM and the GI50 (IGROV1 ovarian) was 0.401 µM. For the same molecule, the TGI (IGROV1 ovarian) was > 94.9 µM, the GI50 (MDA-MB-435) was 0.17 µM and the TGI (MDA-MB-435) was 0.542 µM. For the same molecule, the GI50 (HCT-116 colon) was 0.128 µM, the TGI (HCT-116 colon) was 3.52 µM and the GI50 (SW-620 colon) was 0.378 µM. The TGI (SW-620 colon) was 27.2 µM, the GI50 (SK-MEL-5 melanoma) was 0.247 µM and the TGI (SK-MEL-5 melanoma) was 0.889 µM. For the same molecule, the GI50 (PC-3 prostate) was 0.402 µM, the TGI (PC-3 prostate) was > 100 µM and the GI50 (UACC-62 melanoma) was 0.346 µM. For the same molecule, the TGI (UACC-62 melanoma) was > 85.9 µM, the GI50 (786-0 renal) was 0.443 µM and the TGI (786-0 renal) was 8.54 µM. For the same molecule, the GI50 (MOLT-4 leukemia) was 0.405 µM, the TGI (MOLT-4 leukemia) was > 51.6 µM and the GI50 (SK-MEL-2 melanoma) was 0.423 µM. For the same molecule, the TGI (SK-MEL-2 melanoma) was > 100 µM, the GI50 (TK-10 renal) was 8.98 µM and the TGI (TK-10 renal) was 37.2 µM. The GI50 (SR leukemia) was 0.458 µM, the TGI (SR leukemia) was > 100 µM and the GI50 (A498 renal) was 20.1 µM. It also gave a TGI (A498 renal) of 48.9 µM.
